Read-outs that look alike come from different tables or passages of the source.
Key:
Experiment in all cases: SelectScreen Z-LYTE kinase activity assay (SI Table 6)
Assay type in all cases: biochemical
[1] = molecular target: T1, protein kinases of the Z-LYTE panel (Homo sapiens, UniProt Q02156)
T1 sequence (Q02156 1-737): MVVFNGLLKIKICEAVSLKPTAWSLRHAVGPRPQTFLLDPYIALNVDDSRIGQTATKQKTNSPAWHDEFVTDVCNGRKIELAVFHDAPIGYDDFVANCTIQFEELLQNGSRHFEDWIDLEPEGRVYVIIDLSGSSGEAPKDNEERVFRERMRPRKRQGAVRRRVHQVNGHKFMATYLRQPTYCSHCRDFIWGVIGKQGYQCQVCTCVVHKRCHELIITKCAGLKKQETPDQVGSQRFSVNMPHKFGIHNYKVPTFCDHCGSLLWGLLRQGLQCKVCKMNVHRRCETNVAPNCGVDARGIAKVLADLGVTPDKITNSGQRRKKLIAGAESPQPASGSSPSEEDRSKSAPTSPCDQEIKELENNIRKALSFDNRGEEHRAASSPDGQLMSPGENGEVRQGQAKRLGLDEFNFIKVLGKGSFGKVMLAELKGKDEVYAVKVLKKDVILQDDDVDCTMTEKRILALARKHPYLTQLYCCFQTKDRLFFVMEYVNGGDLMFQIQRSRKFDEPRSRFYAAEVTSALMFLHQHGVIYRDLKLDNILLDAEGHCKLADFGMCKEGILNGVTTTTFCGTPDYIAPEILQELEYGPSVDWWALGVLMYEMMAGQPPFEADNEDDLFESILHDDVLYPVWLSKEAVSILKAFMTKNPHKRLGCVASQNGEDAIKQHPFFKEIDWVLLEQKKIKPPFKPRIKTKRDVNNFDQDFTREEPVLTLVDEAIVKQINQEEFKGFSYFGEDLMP
How it was run: (§1)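 Compound 1938 counterscreened at 1 μM against 133 protein and 7 lipid kinases in the SelectScreen panel, using Adapta, LanthaScreen binding and Z-LYTE formats as applicable.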

[2] = molecular target: protein kinases of the Z-LYTE panel (Homo sapiens, UniProt Q16539)
Chain of protein kinases of the Z-LYTE panel (Homo sapiens, UniProt Q16539) (Q16539 whole entry): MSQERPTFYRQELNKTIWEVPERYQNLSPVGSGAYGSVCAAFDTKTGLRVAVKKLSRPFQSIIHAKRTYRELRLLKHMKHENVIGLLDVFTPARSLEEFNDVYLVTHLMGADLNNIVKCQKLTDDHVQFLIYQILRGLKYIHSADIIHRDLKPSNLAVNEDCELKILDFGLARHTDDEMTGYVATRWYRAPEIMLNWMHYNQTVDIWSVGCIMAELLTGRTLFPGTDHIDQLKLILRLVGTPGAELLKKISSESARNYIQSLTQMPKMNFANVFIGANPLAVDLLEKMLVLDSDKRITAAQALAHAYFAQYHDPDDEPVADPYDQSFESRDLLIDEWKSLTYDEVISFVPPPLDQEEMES
How it was run: as §1

[3] = molecular target: protein kinases of the Z-LYTE panel (Homo sapiens, UniProt P17948)
Chain of protein kinases of the Z-LYTE panel (Homo sapiens, UniProt P17948) (P17948 27-1338): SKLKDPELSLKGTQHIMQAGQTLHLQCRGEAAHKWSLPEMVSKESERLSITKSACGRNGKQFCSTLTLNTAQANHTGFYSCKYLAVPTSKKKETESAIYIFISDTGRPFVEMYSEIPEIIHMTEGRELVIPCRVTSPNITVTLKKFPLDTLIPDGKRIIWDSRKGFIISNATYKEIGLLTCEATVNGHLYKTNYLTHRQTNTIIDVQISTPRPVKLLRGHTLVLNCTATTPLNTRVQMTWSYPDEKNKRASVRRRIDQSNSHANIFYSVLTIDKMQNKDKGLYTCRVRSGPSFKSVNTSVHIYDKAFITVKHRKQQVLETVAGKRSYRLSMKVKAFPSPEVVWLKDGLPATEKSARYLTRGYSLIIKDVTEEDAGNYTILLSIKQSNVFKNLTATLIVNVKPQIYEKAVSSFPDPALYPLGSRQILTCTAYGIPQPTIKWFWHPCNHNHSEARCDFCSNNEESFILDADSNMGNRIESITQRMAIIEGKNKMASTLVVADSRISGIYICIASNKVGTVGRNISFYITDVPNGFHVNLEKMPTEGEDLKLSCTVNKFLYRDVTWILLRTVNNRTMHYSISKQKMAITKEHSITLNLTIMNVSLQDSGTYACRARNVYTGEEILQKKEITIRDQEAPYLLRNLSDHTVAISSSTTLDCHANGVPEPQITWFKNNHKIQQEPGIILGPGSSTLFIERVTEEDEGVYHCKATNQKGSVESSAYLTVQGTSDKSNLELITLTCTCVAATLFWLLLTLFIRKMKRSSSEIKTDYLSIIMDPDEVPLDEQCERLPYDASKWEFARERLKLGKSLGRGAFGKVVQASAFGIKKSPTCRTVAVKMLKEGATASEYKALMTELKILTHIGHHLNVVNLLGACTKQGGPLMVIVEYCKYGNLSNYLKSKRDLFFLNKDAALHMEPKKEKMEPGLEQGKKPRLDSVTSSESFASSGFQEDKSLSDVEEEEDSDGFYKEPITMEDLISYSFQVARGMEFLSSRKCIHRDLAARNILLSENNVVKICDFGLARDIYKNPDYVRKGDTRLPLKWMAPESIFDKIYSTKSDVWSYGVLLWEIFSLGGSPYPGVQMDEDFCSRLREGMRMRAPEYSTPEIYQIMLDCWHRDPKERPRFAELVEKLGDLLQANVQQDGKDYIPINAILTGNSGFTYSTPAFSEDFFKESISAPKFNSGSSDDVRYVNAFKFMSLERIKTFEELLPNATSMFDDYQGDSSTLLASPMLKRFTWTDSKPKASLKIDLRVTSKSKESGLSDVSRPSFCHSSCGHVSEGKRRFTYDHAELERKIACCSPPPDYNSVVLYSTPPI
How it was run: as §1

[4] = molecular target: protein kinases of the Z-LYTE panel (Homo sapiens, UniProt Q9P1W9)
Chain of protein kinases of the Z-LYTE panel (Homo sapiens, UniProt Q9P1W9) (Q9P1W9 whole entry): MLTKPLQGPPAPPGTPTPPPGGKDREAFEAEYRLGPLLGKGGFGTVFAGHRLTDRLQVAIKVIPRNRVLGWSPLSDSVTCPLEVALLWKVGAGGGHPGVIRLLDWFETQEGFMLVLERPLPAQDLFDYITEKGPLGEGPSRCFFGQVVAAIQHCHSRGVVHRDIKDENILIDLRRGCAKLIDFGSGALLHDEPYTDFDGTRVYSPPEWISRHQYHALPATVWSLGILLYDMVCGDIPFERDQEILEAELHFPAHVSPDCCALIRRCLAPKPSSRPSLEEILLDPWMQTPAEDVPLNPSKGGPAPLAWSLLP
How it was run: as §1

[5] = molecular target: protein kinases of the Z-LYTE panel (Homo sapiens, UniProt P43405)
How it was run: as §1

[6] = molecular target: protein kinases of the Z-LYTE panel (Homo sapiens, UniProt P22455)
How it was run: as §1

[7] = molecular target: protein kinases of the Z-LYTE panel (Homo sapiens, UniProt P04629)
Chain of protein kinases of the Z-LYTE panel (Homo sapiens, UniProt P04629) (P04629 33-796): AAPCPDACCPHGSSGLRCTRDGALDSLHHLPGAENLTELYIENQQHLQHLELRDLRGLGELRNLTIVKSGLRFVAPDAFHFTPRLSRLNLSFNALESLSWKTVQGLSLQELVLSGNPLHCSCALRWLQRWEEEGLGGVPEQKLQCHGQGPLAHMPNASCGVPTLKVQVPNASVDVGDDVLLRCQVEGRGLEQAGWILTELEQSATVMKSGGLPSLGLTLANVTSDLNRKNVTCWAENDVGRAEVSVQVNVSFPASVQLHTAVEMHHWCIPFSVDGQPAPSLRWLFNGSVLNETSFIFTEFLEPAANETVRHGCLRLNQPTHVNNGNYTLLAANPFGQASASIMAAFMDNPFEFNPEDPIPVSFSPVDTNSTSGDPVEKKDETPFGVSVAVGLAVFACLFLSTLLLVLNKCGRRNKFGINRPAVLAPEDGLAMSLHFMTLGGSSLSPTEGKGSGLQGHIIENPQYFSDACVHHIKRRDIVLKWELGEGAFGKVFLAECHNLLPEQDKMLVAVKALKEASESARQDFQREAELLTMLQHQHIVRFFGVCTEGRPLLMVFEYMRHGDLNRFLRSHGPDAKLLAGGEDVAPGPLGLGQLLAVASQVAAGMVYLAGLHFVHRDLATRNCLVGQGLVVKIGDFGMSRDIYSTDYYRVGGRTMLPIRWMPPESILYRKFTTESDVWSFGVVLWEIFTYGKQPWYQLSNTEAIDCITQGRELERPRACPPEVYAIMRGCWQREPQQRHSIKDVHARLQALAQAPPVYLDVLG
How it was run: as §1

[8] = molecular target: protein kinases of the Z-LYTE panel (Homo sapiens, UniProt P80192)
Chain of protein kinases of the Z-LYTE panel (Homo sapiens, UniProt P80192) (P80192 whole entry): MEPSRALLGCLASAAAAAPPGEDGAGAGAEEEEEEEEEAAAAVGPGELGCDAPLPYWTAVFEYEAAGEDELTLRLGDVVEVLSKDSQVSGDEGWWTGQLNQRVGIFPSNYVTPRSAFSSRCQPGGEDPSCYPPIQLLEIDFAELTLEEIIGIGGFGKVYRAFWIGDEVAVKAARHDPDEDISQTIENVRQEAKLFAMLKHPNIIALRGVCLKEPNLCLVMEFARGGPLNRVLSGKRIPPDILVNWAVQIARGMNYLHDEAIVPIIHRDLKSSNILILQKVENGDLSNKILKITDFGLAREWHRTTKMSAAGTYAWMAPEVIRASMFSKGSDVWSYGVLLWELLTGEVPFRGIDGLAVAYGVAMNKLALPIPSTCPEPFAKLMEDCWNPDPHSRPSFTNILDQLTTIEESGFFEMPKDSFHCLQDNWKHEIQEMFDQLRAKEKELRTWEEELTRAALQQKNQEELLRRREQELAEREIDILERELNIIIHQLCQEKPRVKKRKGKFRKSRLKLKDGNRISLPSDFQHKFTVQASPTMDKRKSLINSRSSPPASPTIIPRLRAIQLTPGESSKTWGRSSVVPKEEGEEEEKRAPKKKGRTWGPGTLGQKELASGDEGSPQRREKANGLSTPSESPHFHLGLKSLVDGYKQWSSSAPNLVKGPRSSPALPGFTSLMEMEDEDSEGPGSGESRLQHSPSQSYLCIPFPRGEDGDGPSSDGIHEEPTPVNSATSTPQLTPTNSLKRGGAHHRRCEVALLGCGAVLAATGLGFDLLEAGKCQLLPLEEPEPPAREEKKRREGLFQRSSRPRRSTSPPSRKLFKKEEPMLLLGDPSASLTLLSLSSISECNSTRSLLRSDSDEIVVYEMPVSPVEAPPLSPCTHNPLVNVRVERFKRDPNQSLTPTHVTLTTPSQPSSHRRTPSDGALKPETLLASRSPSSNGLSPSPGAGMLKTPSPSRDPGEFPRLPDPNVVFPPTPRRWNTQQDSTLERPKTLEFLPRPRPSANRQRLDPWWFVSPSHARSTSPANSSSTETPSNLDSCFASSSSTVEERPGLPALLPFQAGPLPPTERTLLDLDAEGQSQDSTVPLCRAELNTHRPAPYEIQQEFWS
How it was run: as §1

[9] = molecular target: protein kinases of the Z-LYTE panel (Homo sapiens, UniProt Q96SB4)
Chain of protein kinases of the Z-LYTE panel (Homo sapiens, UniProt Q96SB4) (Q96SB4 whole entry): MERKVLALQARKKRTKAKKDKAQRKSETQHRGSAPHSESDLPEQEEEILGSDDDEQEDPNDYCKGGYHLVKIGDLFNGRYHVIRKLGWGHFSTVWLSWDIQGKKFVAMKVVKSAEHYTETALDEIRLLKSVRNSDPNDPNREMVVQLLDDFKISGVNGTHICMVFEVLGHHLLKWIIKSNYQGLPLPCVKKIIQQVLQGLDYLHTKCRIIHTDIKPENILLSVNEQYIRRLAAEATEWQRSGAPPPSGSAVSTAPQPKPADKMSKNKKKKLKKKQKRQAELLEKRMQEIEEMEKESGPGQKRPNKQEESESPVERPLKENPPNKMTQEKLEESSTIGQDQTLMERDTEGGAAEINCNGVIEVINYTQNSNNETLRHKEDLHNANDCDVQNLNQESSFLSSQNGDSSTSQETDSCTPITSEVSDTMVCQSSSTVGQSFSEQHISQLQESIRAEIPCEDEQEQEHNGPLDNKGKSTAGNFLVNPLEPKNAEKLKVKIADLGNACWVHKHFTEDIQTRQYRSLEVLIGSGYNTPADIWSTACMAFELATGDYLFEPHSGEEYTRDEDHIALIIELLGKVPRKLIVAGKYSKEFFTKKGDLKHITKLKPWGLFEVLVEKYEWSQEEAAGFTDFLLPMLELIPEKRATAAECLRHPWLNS
How it was run: as §1

CCN1CCN(c2ccc(Nc3cc(Nc4cccc5c4N(C(C)=O)CC5)ccn3)cc2)CC1 [Compound 1938]
inhibition at 1 µM ([1]; read-out: % Inhibition Point 1): 1% | inhibition at 1 µM ([1]; read-out: % Inhibition Point 2): 2% | inhibition at 1 µM ([1]; read-out: % Inhibition mean): 1.57% | inhibition at 1 µM ([2]; read-out: % Inhibition Point 1): 9% | inhibition at 1 µM ([2]; read-out: % Inhibition Point 2): 9% | inhibition at 1 µM ([2]; read-out: % Inhibition mean): 9% | inhibition at 1 µM ([3]; read-out: % Inhibition Point 1): 1.74% | inhibition at 1 µM ([3]; read-out: % Inhibition Point 2): 1.66% | inhibition at 1 µM ([3]; read-out: % Inhibition mean): 1.7% | inhibition at 1 µM ([4]; read-out: % Inhibition Point 1): 2% | inhibition at 1 µM ([4]; read-out: % Inhibition Point 2): 0.0719% | inhibition at 1 µM ([4]; read-out: % Inhibition mean): 1% | inhibition at 1 µM ([5]; read-out: % Inhibition Point 1): 3% | inhibition at 1 µM ([5]; read-out: % Inhibition Point 2): 3.66% | inhibition at 1 µM ([5]; read-out: % Inhibition mean): 3.32% | inhibition at 1 µM ([6]; read-out: % Inhibition Point 1): 8.55% | inhibition at 1 µM ([6]; read-out: % Inhibition Point 2): 8% | inhibition at 1 µM ([6]; read-out: % Inhibition mean): 8% | inhibition at 1 µM ([7]; read-out: % Inhibition Point 1): 26% | inhibition at 1 µM ([7]; read-out: % Inhibition Point 2): 20% | inhibition at 1 µM ([7]; read-out: % Inhibition mean): 23% | inhibition at 1 µM ([8]; read-out: % Inhibition Point 1): 6.46% | inhibition at 1 µM ([8]; read-out: % Inhibition Point 2): 4% | inhibition at 1 µM ([8]; read-out: % Inhibition mean): 5% | inhibition at 1 µM ([9]; read-out: % Inhibition Point 1): 1.56% | inhibition at 1 µM ([9]; read-out: % Inhibition Point 2): 1.35% | inhibition at 1 µM ([9]; read-out: % Inhibition mean): 1.46%

Reference: paper PMC7614683, “A small molecule PI3Kα activator for cardioprotection and neuroregeneration” (Nature, 2023)
